According to patent publication US6844352B2, “1′-[4-[1-(4-fluorophenyl)-1H-indole-3-yl]-1-butyl]-spiro[isobenzofuran-1(3H),4′-piperidine] hydrohalogenides” (H. Lundbeck A/S, priority 1997, dated 2005):

Legend:
[1] = Bioavailability study after multiple oral administration in Beagle dogs (serum levels by HPLC); type: in vivo; details: both sexes, dog, area under serum concentration versus time curve 0-24 hours after dosing on day 7, 10 mg/kg/day (as free base) orally in gelatine capsules for 7 days, read-out: AUC0-24.7 Mean
Procedure: After multiple administration in Beagle dogs, the bioavailability of the salts of 1′-[4-[1-(4-fluorophenyl)-1H-indole-3-yl]-1-butyl]-spiro[isobenzofuran-1(3H),4′-piperidine] was investigated as described in the following study:
Two groups, each consisting of four Beagle dogs (2 males and 2 females) were used in the study.
The dogs in the individual groups were given single daily doses of 10 mg/kg/day (calculated as free base) of the fumarate and the hydrochloride of 1′-[4-[1-(4-fluorophenyl)-1H-indole-3-yl]-1-butyl]-spiro[isobenzofuran-1(3H),4′-piperidine] for seven days.
Blood samples for serum preparation were drawn from the test animals at specific nominal time points before and after dosing on each day and analyzed using HPLC. […]
Single doses of the different salts corresponding to 10.0 mg (˜21997 nmol ) of 1′-[4-[1-(4-fluorophenyl)-1H-indole-3-yl]-1-butyl]-spiro[isobenzofuran-1(3H),4′-piperidine] per kg body weight were accurately weighed into gelatine capsules. The calculated amounts of test compound for each dog were based on body weights measured at study start. […]
The exact blood sampling times for each dog relative to the first dose were recorded. […]
The serum samples obtained were analysed for content of 1′-[4-[1-(4-fluorophenyl)-1H-indole-3-yl]-1-butyl]-spiro[isobenzofuran-1(3H),4′-piperidine] by a pseudo-normal phase HPLC-method after liquid-liquid extraction. […]

Aqueous solubility = type: physicochemical
[2] = Bioavailability experiments in rats; type: in vivo
[3] = Bioavailability experiments in dogs; type: in vivo
sigma receptors = details: cited from earlier work
rats = details: cited from earlier work
sigma receptor = details: cited from earlier work

For `Fc1ccc(-n2cc(CCCCN3CCC4(CC3)OCc3ccccc34)c3ccccc32)cc1.O=C(O)/C=C/C(=O)O` [Fumarate, 1′-[4-[1-(4-fluorophenyl)-1H-indole-3-yl]-1-butyl]-spiro[isobenzofuran-1(3H),4′-piperidine], fumarate], the AUC(0-t) [1] was 4.02 µM·h, the aqueous solubility (Aqueous solubility) was “very low” and the bioavailability [2] was “limited bioavailablity”. For the same compound, the bioavailability [3] was “limited bioavailablity”.
With `Cl.Fc1ccc(-n2cc(CCCCN3CCC4(CC3)OCc3ccccc34)c3ccccc32)cc1` [Hydrochloride, 1′-[4-[1-(4-fluorophenyl)-1H-indole-3-yl]-1-butyl]-spiro[isobenzofuran-1(3H),4′-piperidine], hydrochloride] the AUC(0-t) [1] was 12 µM·h and the “water solubility compared to the fumarate” value (Aqueous solubility) was “improved water solubility”.
In the case of `Fc1ccc(-n2cc(CCCCN3CCC4(CC3)OCc3ccccc34)c3ccccc32)cc1` [free base, 1′-[4-[1-(4-fluorophenyl)-1H-indole-3-yl]-1-butyl]-spiro[isobenzofuran-1(3H),4′-piperidine]], the aqueous solubility (Aqueous solubility) is given as “very low”, the “sigma ligand potency and selectivity” value (sigma receptors) is given as “potent and selective sigma ligand” and the “anxiolytic potential in black/white exploration test” value (rats) is given as “active over a large dose range”.
In the case of `C[C@@H]1CN(CCCn2c3ccccc3c3ccccc32)C[C@H](C)N1` [rimcazole], the “clinical effect in the treatment of psychoses” value (sigma receptor) is listed as “clinically shows effect”.
